The IC50 is the concentration at which inhibition is half-maximal.

What all share (type): biochemical
The target in one test is T1, CDKL3(h) (Homo sapiens, UniProt Q8IVW4).
T1 construct: purchased Eurofins (KinaseProfiler)
Briefly: radiometric kinase assay (KinaseProfiler, Eurofins), CDKL3. The conditions noted are these: in vitro radiometric kinase assay, tested at 1 nM to 10 000 nM, no pre-incubation; read-out: inhibitory activities (IC50 values) CDKL3. As for the experimental part:
(§1) The compounds were profiled in the radiometric assays (KinaseProfiler, Eurofins).
(§2) Briefly, kinases were diluted in the buffer shown below prior to addition to the reaction mix: • CDKL3, TAF1L: 20 mM Tris/HCl pH 8.5, 0.2 mM EDTA, 0.1% β-mercaptoethanol, 0.01% Brij-35, 5% glycerol, 1 mg/ml BSA; • Haspin: 15 mM MOPS, 0.75 mM EDTA, 0.0075% Brij-35, 3.75% Glycerol, 150 mM NaCl, 0.1% β-mercaptoethanol, 1 mg/mLBSA; • CDKL4, CLK2, PIM1, TRB2: […], 1 mM EDTA, 0.01% Brij-35, 5% Glycerol, 0.1% β-mercaptoethanol, 1 mg/mL BSA.
(§3) All compounds were prepared to 50x final assay concentration in 100% DMSO. This working stock of the compound was added to the assay well as the first component in the reaction, followed by the remaining components as detailed in the general assay protocols below. There was no pre-incubation step between the compound and the kinase prior to initiation of the reaction.
CDKL3(h) was incubated with 8 mM MOPS pH 7.0, 0.2 mM EDTA, 250 µM RRRFRPASPLRGPPK (SEQ ID NO. 1), 10 mM magnesium acetate and γ-^33P-ATP (specific activity and concentration as required). The reaction was initiated by the addition of the Mg/ATP mix. After incubation for 120 minutes at room temperature, the reaction was stopped by the addition of phosphoric acid to a concentration of 0.5%. An aliquot of the stopped reaction was spotted onto a filter and washed four times for 4 minutes in 0.425% phosphoric acid and once in methanol prior to drying and scintillation counting.
(§4) Kinase activity data were expressed as the percent remaining kinase activity in tested samples compared to the vehicle (DMSO) reactions. The compounds were tested at the following concentrations: 1 nM, 3 nM, 10 nM, 30 nM, 100 nM, 300 nM, 1000 nM, 3000 nM, and 10 000 nM; IC50 values and curve fits were then obtained.

The target in a further test is T2, DYRK2 (h) (Homo sapiens, UniProt Q92630).
T2 construct: purchased Eurofins (KinaseProfiler)
T2 sequence (Q92630 1-601): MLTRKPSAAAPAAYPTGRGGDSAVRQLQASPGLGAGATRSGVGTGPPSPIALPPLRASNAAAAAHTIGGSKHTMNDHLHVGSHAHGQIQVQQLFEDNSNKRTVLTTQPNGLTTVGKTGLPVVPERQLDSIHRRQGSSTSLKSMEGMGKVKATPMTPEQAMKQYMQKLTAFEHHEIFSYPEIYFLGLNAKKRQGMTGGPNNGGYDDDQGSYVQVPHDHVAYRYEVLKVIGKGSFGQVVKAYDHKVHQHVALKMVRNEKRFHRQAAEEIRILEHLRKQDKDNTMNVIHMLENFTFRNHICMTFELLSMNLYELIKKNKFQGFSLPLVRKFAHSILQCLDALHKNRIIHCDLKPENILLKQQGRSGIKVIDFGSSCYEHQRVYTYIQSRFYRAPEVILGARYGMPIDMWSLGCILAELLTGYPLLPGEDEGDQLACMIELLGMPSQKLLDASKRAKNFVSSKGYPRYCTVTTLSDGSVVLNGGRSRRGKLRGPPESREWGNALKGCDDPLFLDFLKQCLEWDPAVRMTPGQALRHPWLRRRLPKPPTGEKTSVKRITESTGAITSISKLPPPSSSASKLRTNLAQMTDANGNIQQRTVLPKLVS
Nature of the test: radiometric kinase assay (KinaseProfiler, Eurofins), DYRK2. To be noted: in vitro radiometric kinase assay, tested at 1 nM to 10 000 nM, no pre-incubation; read-out: inhibitory activities (IC50 values) DYRK2. As for the experimental part: as §1, §3
DYRK2 (h) was incubated with 8 mM MOPS pH 7.0, 0.2 mM EDTA, 2 mg/mL casein, 10 mM magnesium acetate and γ-^33P-ATP (specific activity and concentration as required). The reaction was initiated by the addition of the Mg/ATP mix. After incubation for 40 minutes at room temperature, the reaction was stopped by the addition of phosphoric acid to a concentration of 0.5%. An aliquot of the reaction was then spotted onto a filter and washed four times for 4 minutes in 0.425% phosphoric acid and once in methanol prior to drying and scintillation counting.
as §4

In the next test the target is T3, TAF1L(h) (Homo sapiens, UniProt Q8IZX4).
T3 construct: purchased Eurofins (KinaseProfiler)
T3 sequence (Q8IZX4 whole entry): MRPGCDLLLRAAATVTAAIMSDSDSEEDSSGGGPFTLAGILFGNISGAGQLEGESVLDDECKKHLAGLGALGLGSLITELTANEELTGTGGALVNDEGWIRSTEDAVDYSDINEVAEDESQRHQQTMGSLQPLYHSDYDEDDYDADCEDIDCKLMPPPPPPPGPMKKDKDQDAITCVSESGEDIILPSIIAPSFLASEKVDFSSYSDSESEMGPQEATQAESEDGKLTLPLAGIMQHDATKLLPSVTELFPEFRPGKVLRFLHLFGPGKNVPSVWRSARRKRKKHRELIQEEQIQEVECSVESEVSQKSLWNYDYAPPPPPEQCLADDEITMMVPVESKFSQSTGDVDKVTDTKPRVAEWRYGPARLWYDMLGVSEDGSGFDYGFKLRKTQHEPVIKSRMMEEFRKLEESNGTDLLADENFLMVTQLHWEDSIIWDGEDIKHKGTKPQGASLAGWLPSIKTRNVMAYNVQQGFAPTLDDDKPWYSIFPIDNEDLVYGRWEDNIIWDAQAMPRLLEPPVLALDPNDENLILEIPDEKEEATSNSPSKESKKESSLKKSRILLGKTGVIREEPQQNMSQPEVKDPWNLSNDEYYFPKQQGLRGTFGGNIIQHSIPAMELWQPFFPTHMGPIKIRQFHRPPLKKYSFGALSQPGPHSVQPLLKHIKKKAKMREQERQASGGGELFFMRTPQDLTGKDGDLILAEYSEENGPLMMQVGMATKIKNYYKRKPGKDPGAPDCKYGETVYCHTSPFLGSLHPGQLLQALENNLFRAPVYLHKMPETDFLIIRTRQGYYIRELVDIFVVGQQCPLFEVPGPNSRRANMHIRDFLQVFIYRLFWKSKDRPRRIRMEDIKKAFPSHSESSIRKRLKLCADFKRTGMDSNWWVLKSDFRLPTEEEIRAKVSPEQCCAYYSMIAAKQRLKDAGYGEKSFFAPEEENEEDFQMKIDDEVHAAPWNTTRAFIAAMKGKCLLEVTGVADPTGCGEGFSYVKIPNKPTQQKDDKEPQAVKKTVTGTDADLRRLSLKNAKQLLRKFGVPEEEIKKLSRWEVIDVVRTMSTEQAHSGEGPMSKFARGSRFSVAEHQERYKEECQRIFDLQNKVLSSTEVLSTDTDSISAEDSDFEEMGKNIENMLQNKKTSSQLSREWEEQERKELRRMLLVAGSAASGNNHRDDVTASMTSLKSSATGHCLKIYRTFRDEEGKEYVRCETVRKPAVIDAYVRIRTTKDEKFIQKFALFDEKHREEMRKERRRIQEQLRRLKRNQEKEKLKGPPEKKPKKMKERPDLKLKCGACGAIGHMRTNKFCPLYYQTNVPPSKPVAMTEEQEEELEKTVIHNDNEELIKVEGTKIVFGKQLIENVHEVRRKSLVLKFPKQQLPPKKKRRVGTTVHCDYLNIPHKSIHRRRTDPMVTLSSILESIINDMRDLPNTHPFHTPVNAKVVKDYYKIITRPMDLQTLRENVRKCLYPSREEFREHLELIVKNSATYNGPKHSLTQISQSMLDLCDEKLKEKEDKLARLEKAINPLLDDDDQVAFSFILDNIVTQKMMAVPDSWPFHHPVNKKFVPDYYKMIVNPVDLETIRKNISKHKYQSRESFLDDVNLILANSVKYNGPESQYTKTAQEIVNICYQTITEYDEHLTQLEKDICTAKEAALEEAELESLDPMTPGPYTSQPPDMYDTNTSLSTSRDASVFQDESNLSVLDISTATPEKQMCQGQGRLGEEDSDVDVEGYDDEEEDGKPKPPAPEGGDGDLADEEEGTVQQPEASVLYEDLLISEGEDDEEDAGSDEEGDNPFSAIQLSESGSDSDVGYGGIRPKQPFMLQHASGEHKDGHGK
Nature of the test: radiometric kinase assay (KinaseProfiler, Eurofins), TAF1L. To be noted: in vitro radiometric kinase assay, tested at 1 nM to 10 000 nM, no pre-incubation; read-out: inhibitory activities (IC50 values) TAF1L. As for the experimental part:
as §1, §2, §3
TAF1L(h) was incubated with 20 mM Tris/HCl pH 8.5, 0.2 mM EDTA, 250 µM RRRFRPASPLRGPPK (SEQ ID NO. 1), 10 mM magnesium acetate and γ-^33P-ATP (specific activity and concentration as required). The reaction was initiated by the addition of the Mg/ATP mix. After incubation for 120 minutes at room temperature, the reaction was stopped by the addition of phosphoric acid to a concentration of 0.5%. An aliquot of the stopped reaction was spotted onto a filter and washed four times for 4 minutes in 0.425% phosphoric acid and once in methanol prior to drying and scintillation counting.
as §4

The target in a further test is T4, TRB2(h) (Homo sapiens, UniProt Q92519).
T4 construct: purchased Eurofins (KinaseProfiler)
T4 sequence (Q92519 1-343): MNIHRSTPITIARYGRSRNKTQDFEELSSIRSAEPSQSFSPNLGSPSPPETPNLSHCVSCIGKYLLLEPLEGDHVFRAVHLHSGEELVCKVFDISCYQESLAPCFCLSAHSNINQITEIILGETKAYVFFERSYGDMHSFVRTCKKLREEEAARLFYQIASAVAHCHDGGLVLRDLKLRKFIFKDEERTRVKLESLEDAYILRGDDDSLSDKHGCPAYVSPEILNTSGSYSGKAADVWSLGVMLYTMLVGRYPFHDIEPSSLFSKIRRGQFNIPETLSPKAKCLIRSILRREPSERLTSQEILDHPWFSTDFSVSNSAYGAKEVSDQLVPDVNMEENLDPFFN
Nature of the test: radiometric kinase assay (KinaseProfiler, Eurofins), TRB2. To be noted: in vitro radiometric kinase assay, tested at 1 nM to 10 000 nM, no pre-incubation; read-out: inhibitory activities (IC50 values) TRB2. As for the experimental part: as §1, §2, §3
TRB2(h) was incubated with 8 mM MOPS pH 7.0, 0.2 mM EDTA, 250 µM RRRFRPASPLRGPPK (SEQ ID NO. 1), 10 mM magnesium acetate and γ-^33P-ATP (specific activity and concentration as required). The reaction was initiated by the addition of the Mg/ATP mix. After incubation for 120 minutes at room temperature, the reaction was stopped by the addition of phosphoric acid to a concentration of 0.5%. An aliquot of the stopped reaction was spotted onto a filter and washed four times for 4 minutes in 0.425% phosphoric acid and once in methanol prior to drying and scintillation counting.
as §4

T1 sequence (Q8IVW4 whole entry): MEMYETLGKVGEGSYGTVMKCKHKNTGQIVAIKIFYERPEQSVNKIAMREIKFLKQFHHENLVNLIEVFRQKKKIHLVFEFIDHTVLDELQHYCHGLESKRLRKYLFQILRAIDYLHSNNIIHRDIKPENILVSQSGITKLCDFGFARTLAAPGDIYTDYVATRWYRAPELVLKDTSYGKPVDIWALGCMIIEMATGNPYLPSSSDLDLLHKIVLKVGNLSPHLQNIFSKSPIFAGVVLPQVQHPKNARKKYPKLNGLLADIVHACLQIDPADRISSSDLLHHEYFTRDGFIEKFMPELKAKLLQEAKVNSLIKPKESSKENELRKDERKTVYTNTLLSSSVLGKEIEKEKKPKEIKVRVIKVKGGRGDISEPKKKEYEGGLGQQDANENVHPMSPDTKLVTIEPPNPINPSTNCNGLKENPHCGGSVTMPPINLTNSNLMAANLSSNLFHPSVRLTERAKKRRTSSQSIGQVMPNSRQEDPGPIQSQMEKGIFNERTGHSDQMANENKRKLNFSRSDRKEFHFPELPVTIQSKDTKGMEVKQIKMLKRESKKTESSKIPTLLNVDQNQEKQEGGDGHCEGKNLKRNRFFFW

Regarding `Cn1nccc1-c1ccc2scc(-c3ccncc3)c2n1` [Preparative Example 90, 5-(1-methyl-1H-pyrazol-5-yl)-3-(pyridin-4-yl)thieno[3,2-b]pyridine], the IC50 at CDKL3(h) lay in the range of 0.5 to 3 µM; at DYRK2 (h), 3 to 10 µM; on TAF1L(h), 0.5 to 3 µM; at TRB2(h) it was 0.5 to 3 µM.
With `Cn1cncc1-c1ccc2scc(-c3ccncc3)c2n1` [Preparative Example 91, 5-(1-methyl-1H-imidazol-5-yl)-3-(pyridin-4-yl)thieno[3,2-b]pyridine], the half-inhibitory concentration (IC50) was in the range of 0.5 to 3 µM at CDKL3(h), 0.5 to 3 µM at DYRK2 (h), 0.1 to 0.499 µM on TAF1L(h) and 0.5 to 3 µM on TRB2(h).
For the compound `Cn1cc(-c2ccc3scc(-c4ccncc4)c3n2)nn1` [Preparative Example 93, 5-(1-methyl-1H-1,2,3-triazol-4-yl)-3-(pyridin-4-yl)thieno[3,2-b]pyridine], the IC50 on CDKL3(h) lay within 3 to 10 µM; on DYRK2 (h), 3 to 10 µM; on TAF1L(h), 0.5 to 3 µM; on TRB2(h), 0.5 to 3 µM.
As for `Cn1ncc(-c2ccc3scc(-c4ccncc4)c3n2)n1` [Preparative Example 94, 5-(2-methyl-2H-1,2,3-triazol-4-yl)-3-(pyridin-4-yl)thieno[3,2-b]pyridine], the IC50 fell in the range of 0.5 to 3 µM at CDKL3(h), 3 to 10 µM at DYRK2 (h), 0.5 to 3 µM at TAF1L(h) and 0.5 to 3 µM at TRB2(h).
For the compound `Cn1ccc(Nc2ccc3scc(-c4ccncc4)c3n2)n1` [Preparative Example 99, N-(1-methyl-1H-pyrazol-3-yl)-3-(pyridin-4-yl)thieno[3,2-b]pyridin-5-amine], the IC50 on CDKL3(h) was 0.1 to 0.499 µM; at DYRK2 (h), 3 to 10 µM; at TAF1L(h), 0.5 to 3 µM; on TRB2(h), 0.1 to 0.499 µM.
As for `c1cc(-c2csc3ccc(Nc4cc[nH]n4)nc23)ccn1` [Preparative Example 101, N-(1H-pyrazol-3-yl)-3-(pyridin-4-yl)thieno[3,2-b]pyridin-5-amine], the IC50 was in the range of 0.02 to 0.099 µM at CDKL3(h), 0.5 to 3 µM on DYRK2 (h), 0.02 to 0.099 µM at TAF1L(h) and 0.02 to 0.099 µM on TRB2(h).
On to `Fc1cc(-c2ccc3scc(-c4ccccc4)c3n2)cc(F)c1F` [Preparative Example 122, 3-phenyl-5-(3,4,5-trifluorophenyl)thieno[3,2-b]pyridine], for which the 50% inhibitory concentration (IC50) at CDKL3(h), at DYRK2 (h), on TAF1L(h) and at TRB2(h) was 3 to 10 µM each time.
On to `c1ccc(-c2csc3ccc(-c4ccoc4)nc23)cc1` [Preparative Example 123, 5-(furan-3-yl)-3-phenylthieno[3,2-b]pyridine], for which the IC50 on CDKL3(h), at DYRK2 (h), on TAF1L(h) and at TRB2(h) was 3 to 10 µM in each case.
As for `c1ccc(-c2csc3ccc(-c4cnoc4)nc23)cc1` [Preparative Example 124, 4-(3-phenylthieno[3,2-b]pyridin-5-yl)isoxazole], the IC50 at CDKL3(h), at DYRK2 (h), at TAF1L(h) and at TRB2(h) was 3 to 10 µM in each case.
With `Cn1cc(-c2csc3ccc(Oc4ccccc4)nc23)cn1` [Preparative Example 139, 3-(1-methyl-1H-pyrazol-4-yl)-5-phenoxythieno[3,2-b]pyridine], the IC50 on CDKL3(h) lay within 3 to 10 µM; on DYRK2 (h), 3 to 10 µM; at TAF1L(h), 0.5 to 3 µM; at TRB2(h), 0.5 to 3 µM.
Take `Cc1sc2ccc(-c3cnn(C)c3)nc2c1-c1ccncc1` [Preparative Example 142, 2-methyl-5-(1-methyl-1H-pyrazol-4-yl)-3-(pyridin-4-yl)thieno[3,2-b]pyridine]: the IC50 at CDKL3(h), on DYRK2 (h), on TAF1L(h) and on TRB2(h) was 0.5 to 3 µM in each case.
Take `Cc1cc2scc(-c3ccncc3)c2nc1-c1cnn(C)c1` [Preparative Example 150, 6-methyl-5-(1-methyl-1H-pyrazol-4-yl)-3-(pyridin-4-yl)thieno[3,2-b]pyridine]: the IC50 lay within 0.5 to 3 µM at CDKL3(h), 3 to 10 µM at DYRK2 (h), 0.5 to 3 µM at TAF1L(h) and 0.5 to 3 µM at TRB2(h).
As to `Cc1cc2scc(-c3ccncc3)c2nc1-c1ccn(C)n1` [Preparative Example 151, 6-methyl-5-(1-methyl-1H-pyrazol-3-yl)-3-(pyridin-4-yl)thieno[3,2-b]pyridine], the IC50 at CDKL3(h), at DYRK2 (h), at TAF1L(h) and on TRB2(h) was 3 to 10 µM throughout.
In the case of `Cc1cc(-c2cnn(C)c2)nc2c(-c3ccncc3)csc12` [Preparative Example 157, 7-methyl-5-(1-methyl-1H-pyrazol-4-yl)-3-(pyridin-4-yl)thieno[3,2-b]pyridine], the IC50 is 0.5 to 3 µM at CDKL3(h), 3 to 10 µM at DYRK2 (h), 3 to 10 µM at TAF1L(h) and 0.5 to 3 µM at TRB2(h).
Consider `Cn1cc(-c2cc(Cl)c3scc(-c4ccncc4)c3n2)cn1` [Preparative Example 162, 7-chloro-5-(1-methyl-1H-pyrazol-4-yl)-3-(pyridin-4-yl)thieno[3,2-b]pyridine], for which the IC50 fell in the range of 0.1 to 0.499 µM at CDKL3(h), 3 to 10 µM on DYRK2 (h), 0.1 to 0.499 µM on TAF1L(h) and 0.1 to 0.499 µM on TRB2(h).
`Cn1ccc(-c2cc(Cl)c3scc(-c4ccncc4)c3n2)n1` [Preparative Example 163, 7-chloro-5-(1-methyl-1H-pyrazol-3-yl)-3-(pyridin-4-yl)thieno[3,2-b]pyridine]: the IC50 was in the range of 0.5 to 3 µM on CDKL3(h), 3 to 10 µM at DYRK2 (h), 0.5 to 3 µM on TAF1L(h) and 0.5 to 3 µM on TRB2(h).

For the origin of these results see patent EP4483954A1 (Masarykova Univerzita, priority 2023, dated 2025).
